Patent US12691103B2 (Jinan University, priority 2022, dated 2026)
Structures can show the parent of a compound that is named as a salt. Ends that are not written are not given here.

What was measured:
busulfan-modeled mice = conditions: model group, busulfan 30 mg/kg single intraperitoneal injection; compared with the control group
Procedure: The Kunming mice are injected intraperitoneally with busulfan (30 mg/kg). An average weight of the mice is 27 grams (g). Each mouse is injected with 0.8 mg busulfan. A total of 40 mice are modeled.
After one week of modeling the mice, the average weight of the experimental mice is grams (g). […] The control group and the model group are injected with the equivalent amount of physiological saline.
After the mice are anesthetized and sacrificed, the left epididymal tail is immediately removed for semen analysis. The left testis is stored at −80° C., and the parameters such as protein and messenger ribonucleic acid (mRNA) expression are detected. The right testis and right epididymis are fixed with 4% paraformaldehyde for further histological analysis.
(2) Staining with hematoxylin: the soaked sections are taken out and dried, a hematoxylin staining solution is added to cover the tissue and stained for 3 minutes.
(3) Differentiation: a differentiation solution is dropped at the sections, after 5-6 seconds (s), when observing that the color has faded, the section can be rinsed with the ultrapure water.
(4) Bluing: hematoxylin bluing solution is dropped at the section, after 5-6 seconds, when observing the color blue, the sections can be rinsed with the ultrapure water. […]

[1] = test system: men with oligospermia with hypogonadism; conditions: cited from earlier work
[2] = after administration (oral); cited from earlier work
[3] = test system: patients with oligospermia; conditions: GnRH supplementation; cited from earlier work

Compound: CS(=O)(=O)OCCCCOS(C)(=O)=O [busulfan]
- structure of seminiferous tubules (HE staining of testes) (busulfan-modeled mice): severely damages

Compound: CCN(CC)CCOc1ccc(C(=C(Cl)c2ccccc2)c2ccccc2)cc1 [clomiphene citrate]
- bone mineral density of patients ([1]; 12-month treatment): significantly reduce
- usefulness in men with oligospermia with hypogonadism ([1]; in vivo): proven to be useful

Compound: Nc1nc2ccc(OC(F)(F)F)cc2s1 [riluzole, 2-amino-6-trifluomethoxy-benzothiazole]
- time to peak of blood concentration [2]: 60 to 90 min

Compound: GnRH: gonadotropin-releasing hormone supplementation (QHWSYGLRPG; ends and bridges not checked; UniProt P01148 24-33, looked up)
- patients who succeed in spermatogenesis [3]: 77%
